Experimental data taken from ChEMBL document CHEMBL1201862, “PubChem BioAssay data set” (2004).
Activity calls are given as the source filed them. For most assays here, no stated cut-off is given here; in the data, actives have a measured EC50 and inactives only a lower limit.

Tests used:
[1] = molecular target: T1, Protein RecA (Mycobacterium tuberculosis, UniProt P9WHJ3); assay: Fluorescence Cell-Free Homogeneous Dose Retest to Identify Inhibitors of RecA-Intein Splicing Activity. [Related pubchem assays (depositor defined):AID2097, AID2223, AID489010, AID492950]; type: functional
T1 sequence (P9WHJ3 whole entry): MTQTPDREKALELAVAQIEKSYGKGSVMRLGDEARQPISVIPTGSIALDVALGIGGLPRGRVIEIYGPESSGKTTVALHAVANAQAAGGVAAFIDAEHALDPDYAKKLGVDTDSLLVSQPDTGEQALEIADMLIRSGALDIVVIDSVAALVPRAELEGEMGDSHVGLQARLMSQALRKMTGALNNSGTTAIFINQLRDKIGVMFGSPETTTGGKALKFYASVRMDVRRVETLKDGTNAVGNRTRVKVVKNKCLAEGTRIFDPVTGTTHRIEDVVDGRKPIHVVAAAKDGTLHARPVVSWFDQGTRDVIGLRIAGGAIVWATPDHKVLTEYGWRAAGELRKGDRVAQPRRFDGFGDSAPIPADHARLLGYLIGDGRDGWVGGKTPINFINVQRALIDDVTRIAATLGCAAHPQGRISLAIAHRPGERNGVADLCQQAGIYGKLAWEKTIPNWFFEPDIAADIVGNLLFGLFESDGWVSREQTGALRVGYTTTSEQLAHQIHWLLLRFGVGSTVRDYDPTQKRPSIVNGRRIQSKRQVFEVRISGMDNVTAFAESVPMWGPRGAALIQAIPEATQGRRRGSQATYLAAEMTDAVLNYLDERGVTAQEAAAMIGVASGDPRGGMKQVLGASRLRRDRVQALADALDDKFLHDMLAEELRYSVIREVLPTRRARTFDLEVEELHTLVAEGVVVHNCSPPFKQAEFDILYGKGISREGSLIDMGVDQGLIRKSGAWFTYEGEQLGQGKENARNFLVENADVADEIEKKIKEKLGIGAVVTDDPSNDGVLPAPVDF

[2] = molecular target: Induced myeloid leukemia cell differentiation protein Mcl-1 (Homo sapiens, UniProt Q07820); type: functional
[3] = molecular target: T2, Replicative DNA helicase DnaB (Mycobacterium tuberculosis, UniProt P9WMR3); assay: DnaB intein splicing inhibitors, dose response, biochemical, cell-free fluorescence (AID 449749); type: functional
T2 sequence (P9WMR3 whole entry): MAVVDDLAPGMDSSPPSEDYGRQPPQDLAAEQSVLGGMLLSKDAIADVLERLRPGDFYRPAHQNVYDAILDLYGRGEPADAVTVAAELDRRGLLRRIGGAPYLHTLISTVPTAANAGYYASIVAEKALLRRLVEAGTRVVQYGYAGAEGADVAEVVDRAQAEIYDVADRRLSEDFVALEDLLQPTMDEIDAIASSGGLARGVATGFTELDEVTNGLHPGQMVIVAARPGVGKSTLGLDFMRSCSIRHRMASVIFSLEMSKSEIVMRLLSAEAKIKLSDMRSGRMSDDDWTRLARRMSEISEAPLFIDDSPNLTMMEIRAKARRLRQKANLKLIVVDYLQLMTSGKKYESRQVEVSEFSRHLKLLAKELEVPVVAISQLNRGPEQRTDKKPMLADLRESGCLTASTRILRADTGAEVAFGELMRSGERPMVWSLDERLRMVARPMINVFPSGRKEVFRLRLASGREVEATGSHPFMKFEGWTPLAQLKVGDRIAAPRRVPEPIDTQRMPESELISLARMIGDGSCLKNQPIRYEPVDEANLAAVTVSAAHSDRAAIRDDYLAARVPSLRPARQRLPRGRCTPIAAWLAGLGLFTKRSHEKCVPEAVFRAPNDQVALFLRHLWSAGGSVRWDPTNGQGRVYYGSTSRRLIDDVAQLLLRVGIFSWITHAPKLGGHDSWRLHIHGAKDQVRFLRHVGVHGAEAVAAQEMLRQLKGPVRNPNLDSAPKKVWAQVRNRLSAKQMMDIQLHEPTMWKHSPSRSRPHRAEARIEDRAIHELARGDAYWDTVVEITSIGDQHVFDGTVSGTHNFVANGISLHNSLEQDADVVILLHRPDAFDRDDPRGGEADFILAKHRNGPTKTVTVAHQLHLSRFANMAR

[4] = molecular target: T3, RNA-binding protein pos-1 (Caenorhabditis elegans, UniProt G5EF15); assay: disruptors of C. elegans POS-1 RNA interaction – biochemical, fluorescence polarization, dose response (AID 1964);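 further: purified POS-1 fused to maltose binding protein made in E. coli; potency of compounds blocking POS-1 binding to fluorescent RNA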
T3 sequence (G5EF15 whole entry): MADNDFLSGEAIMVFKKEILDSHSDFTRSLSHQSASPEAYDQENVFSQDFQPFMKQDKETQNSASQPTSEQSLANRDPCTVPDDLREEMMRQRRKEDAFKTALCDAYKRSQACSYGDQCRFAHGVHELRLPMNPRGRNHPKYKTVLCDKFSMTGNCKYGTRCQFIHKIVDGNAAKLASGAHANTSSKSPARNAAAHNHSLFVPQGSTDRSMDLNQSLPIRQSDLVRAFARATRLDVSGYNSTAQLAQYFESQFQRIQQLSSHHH

[5] = Trypanosoma cruzi growth suppression in host cells – NIH3T3 host cells, beta-gal luminescence, confirmation (AID 2044); type: functional, cell-based;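 further: intracellular parasites grown in NIH/3T3 mouse fibroblasts as host cells; luminescent beta-galactosidase reporter signal from transgenic T. cruzi replicating inside host cells; inhibitors lower the luminescence signal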
[6] = cells
[7] = molecular target: T4, Mannose-6-phosphate isomerase (Homo sapiens, UniProt P34949); assay: MPI inhibition at elevated mannose 6-phosphate – biochemical, fluorescence intensity, high mannose 6-phosphate, primary screen (AID 1220)
T4 sequence (P34949 whole entry): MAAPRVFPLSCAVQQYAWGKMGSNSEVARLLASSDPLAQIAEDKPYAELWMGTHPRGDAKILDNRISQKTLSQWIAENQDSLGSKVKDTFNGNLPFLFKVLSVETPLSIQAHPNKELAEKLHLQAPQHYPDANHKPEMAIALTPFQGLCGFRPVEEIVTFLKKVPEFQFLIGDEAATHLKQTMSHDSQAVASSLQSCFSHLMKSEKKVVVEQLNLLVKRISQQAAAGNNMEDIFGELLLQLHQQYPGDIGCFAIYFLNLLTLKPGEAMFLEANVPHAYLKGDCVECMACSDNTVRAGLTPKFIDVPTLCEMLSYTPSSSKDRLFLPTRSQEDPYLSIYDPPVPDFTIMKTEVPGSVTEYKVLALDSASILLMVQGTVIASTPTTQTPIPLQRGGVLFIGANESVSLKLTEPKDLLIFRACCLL

[8] = luciferase reporter signal suppression in cells – H4 neuroglioma cells, luminescence, dose response (AID 1990); type: functional, cell-based
[9] = NIH3T3 cell viability loss – ATP luminescence, mouse fibroblasts, counter-screen, dose response (AID 2010); type: functional, cell-based;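 further: cells exposed to compound for about 90 hours before reading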
[10] = Luminescence Cell-Based Dose Response HTS to Identify Inhibitors of 5'UTR Stem-Loop Driven Prion Protein mRNA Translation in H4 Neuroglioblastoma Cells. [Related pubchem assays: 1827 (Project Summary), 1813 (Primary HTS)]; type: functional
[11] = molecular target: T5, Zinc finger protein mex-5 (Caenorhabditis elegans, UniProt Q9XUB2); assay: potency of MEX-5 RNA-binding blockers – biochemical, C. elegans, fluorescence polarization, dose response (AID 1960)
T5 sequence (Q9XUB2 whole entry): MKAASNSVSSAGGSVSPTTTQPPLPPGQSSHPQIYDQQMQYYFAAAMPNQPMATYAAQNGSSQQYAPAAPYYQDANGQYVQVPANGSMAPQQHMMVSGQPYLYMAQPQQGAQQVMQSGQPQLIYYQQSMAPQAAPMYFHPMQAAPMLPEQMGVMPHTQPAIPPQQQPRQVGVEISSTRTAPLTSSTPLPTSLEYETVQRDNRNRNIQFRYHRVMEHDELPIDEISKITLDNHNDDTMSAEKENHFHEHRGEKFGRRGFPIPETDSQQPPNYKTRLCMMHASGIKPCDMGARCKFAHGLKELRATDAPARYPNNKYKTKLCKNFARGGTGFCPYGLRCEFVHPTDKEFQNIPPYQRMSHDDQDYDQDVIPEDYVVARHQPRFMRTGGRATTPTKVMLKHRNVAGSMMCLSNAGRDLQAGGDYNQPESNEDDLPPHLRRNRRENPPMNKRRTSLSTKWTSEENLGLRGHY

[12] = alpha-synuclein stem-loop luciferase translation blockers – H4 neuroglioma cells, luminescence, confirmation (AID 1988); type: functional, cell-based
[13] = NIH-3T3 fibroblast cytotoxicity, dose response, cytotoxicity control, cell-based, fluorescence, Alamar Blue, secondary assay (AID 2327); type: functional;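 further: NIH-3T3 mouse fibroblasts cultured with fluconazole at 8 µg/mL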
[14] = system: Jurkat; assay: blockers of NF-kB activation in T cells – Jurkat, luciferase reporter, luminescence, B- and T-cell, dose response (AID 489004); type: functional, cell-based; details: Homo sapiens;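 further: NF-kB luciferase reporter Jurkat cells stimulated with PMA plus ionomycin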
[15] = molecular target: T6, Streptokinase A (Streptococcus pyogenes serotype M1, UniProt P10520); assay: viability-normalized secreted streptokinase activity reduction – plasminogen activation absorbance, OD405, dose response (AID 1914); type: functional, Streptococcus pyogenes M1 GAS;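 further: secreted streptokinase activity via plasminogen activation per viability signal from cell pellet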
T6 sequence (P10520 whole entry): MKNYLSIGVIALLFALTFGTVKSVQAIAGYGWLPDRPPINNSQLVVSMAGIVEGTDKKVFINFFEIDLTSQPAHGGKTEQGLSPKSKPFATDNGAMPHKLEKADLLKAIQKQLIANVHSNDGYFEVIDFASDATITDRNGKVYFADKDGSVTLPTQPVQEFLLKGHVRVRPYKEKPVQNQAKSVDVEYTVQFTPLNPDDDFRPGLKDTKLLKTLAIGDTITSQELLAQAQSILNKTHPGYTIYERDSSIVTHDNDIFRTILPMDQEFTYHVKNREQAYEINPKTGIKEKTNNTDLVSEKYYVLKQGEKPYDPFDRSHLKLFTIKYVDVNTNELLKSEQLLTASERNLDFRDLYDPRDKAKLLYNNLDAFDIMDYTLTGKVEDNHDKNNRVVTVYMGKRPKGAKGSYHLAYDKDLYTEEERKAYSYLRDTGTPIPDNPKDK

[16] = microbe, parasite or virus in culture; type: functional; details: Mycobacterium tuberculosis
[17] = system: BJ; assay: BJ-TERT-LT-ST fibroblast viability loss – cell-based, RAS-independent, luminescence, dose response (AID 1935); type: functional; details: Homo sapiens;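 further: BJ fibroblasts immortalized with TERT plus LT and ST oncogenes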
[18] = molecular target: Nonstructural protein 1 (Influenza A virus, UniProt Q194T2); type: functional, Influenza A virus (A/California/07/2009(H1N1))
[19] = fluconazole-exposed Candida albicans growth modulators – fluorescence, retest, confirmation (AID 2467); type: functional, cell-based
[20] = system: BJ; assay: cells; type: functional, cell-based; details: Homo sapiens
[21] = system: BJ; assay: BJ-TERT fibroblast viability loss – cell-based, RAS-independent, luminescence, dose response (AID 1933); type: functional; details: Homo sapiens
[22] = system: Streptococcus sp. 'group A'; assay: Streptococcus pyogenes SK(-)GAS viability under kanamycin – luminescence, BacTiterGlo, confirmation, counter-screen for streptokinase expression inhibitor project, dose response (AID 1900); type: functional, organism-based
[23] = DRD fibroblast viability loss – cell-based, non-viral oncogenic, luminescence, dose response (AID 1934); type: functional; details: Homo sapiens
[24] = HEK-293T viability loss, compound-treated – cell-based, uHTS hits, cytotoxicity control for B/T-cell NF-kB inhibitor project, dose response (AID 489019); type: functional;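 further: IC50 reflects cytotoxicity as loss of cell viability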
[25] = system: Streptococcus; assay: GAS UMAA2166 growth inhibition – luminescence, BacTiterGlo, counter-screen for streptokinase expression inhibitor project, dose response (AID 1915); type: functional, organism-based;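 further: potency for reduction of bacterial viability or growth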
[26] = molecular target: T7, Long-chain-fatty-acid--AMP ligase FadD28 (Mycobacterium tuberculosis, UniProt P9WQ59); assay: Fluorescence polarization aasay to screen for inhibitors that compete for the binding of FadD28 to a bisubstrate Measured in Biochemical System Using Plate Reader - 2147-01_Inhibitor_Dose_CherryPick_Activity.; type: functional, Mycobacterium tuberculosis H37Rv
T7 sequence (P9WQ59 whole entry): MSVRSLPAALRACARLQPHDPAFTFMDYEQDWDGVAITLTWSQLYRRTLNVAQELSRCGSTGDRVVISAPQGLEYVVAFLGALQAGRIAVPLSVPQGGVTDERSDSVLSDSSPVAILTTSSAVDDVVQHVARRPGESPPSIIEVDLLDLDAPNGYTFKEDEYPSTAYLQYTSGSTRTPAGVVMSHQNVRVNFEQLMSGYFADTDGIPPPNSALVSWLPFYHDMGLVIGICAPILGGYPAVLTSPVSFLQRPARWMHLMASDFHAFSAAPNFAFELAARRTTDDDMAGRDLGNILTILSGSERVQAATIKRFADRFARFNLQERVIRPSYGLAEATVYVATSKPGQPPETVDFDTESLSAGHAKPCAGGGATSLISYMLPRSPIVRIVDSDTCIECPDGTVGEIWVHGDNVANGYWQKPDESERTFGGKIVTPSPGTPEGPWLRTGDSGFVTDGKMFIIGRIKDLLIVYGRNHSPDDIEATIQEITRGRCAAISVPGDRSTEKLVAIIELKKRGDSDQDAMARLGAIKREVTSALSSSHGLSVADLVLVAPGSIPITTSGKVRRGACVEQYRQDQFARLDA

Nonstructural protein 1, sequence (Q194T2 whole entry): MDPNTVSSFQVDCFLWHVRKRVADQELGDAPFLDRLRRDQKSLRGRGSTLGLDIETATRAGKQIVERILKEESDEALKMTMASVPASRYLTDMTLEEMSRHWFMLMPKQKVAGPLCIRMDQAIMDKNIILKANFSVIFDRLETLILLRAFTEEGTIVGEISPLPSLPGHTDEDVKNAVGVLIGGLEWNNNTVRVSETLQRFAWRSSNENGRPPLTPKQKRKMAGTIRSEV
Induced myeloid leukemia cell differentiation protein Mcl-1, sequence (Q07820 whole entry): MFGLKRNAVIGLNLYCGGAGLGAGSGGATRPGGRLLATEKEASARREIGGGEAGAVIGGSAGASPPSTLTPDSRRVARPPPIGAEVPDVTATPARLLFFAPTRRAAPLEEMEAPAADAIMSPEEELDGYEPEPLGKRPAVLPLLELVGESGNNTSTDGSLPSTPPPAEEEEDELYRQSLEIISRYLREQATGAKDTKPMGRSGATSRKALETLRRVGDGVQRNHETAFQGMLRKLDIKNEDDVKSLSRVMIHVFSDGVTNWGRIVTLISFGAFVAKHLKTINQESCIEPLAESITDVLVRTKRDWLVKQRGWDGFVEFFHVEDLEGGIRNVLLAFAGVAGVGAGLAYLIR

CN1C=C/C(=C\c2cc[n+](C)c3ccccc23)c2ccccc21
EC50 [1]: 1.48 µM (active)
IC50 [2]: 13 µM (active)
AC50 [3]: 121 µM (active)
EC50 [4]: 65.7 µM (active)
EC50 [5]: < 0.1 µM (active)
EC50 [6]: < 0.004 µM (active)
IC50 [7]: > 50 µM (not active)
EC50 [8]: 9.17 µM (active)
EC50 [9]: > 60 µM (not active)
EC50 [10]: 8.89 µM (active)
EC50 [11]: 40 µM (inconclusive)
EC50 [12]: 6.93 µM (active)

C[n+]1c(-c2ccccc2)c2cc(N)ccc2c2ccc(N)cc21
EC50 [13]: > 160 µM (inconclusive)
IC50 [14]: > 80 µM (inactive)
EC50 [15]: > 150 µM (not active)
CC50 [16]: > 40 µM (active)
EC50 [5]: < 0.1 µM (active)
EC50 [17]: 10.5 µM (active)
IC50 [18]: 30.5 µM (active)
EC50 [6]: 0.011 µM (active)
EC50 [19]: 0.121 µM (active)
EC50 [20]: 6.25 µM (active)
EC50 [21]: 3.61 µM (active)
EC50 [22]: 1.29 µM (active)
EC50 [8]: > 120 µM (not active)
EC50 [9]: 12.3 µM (active)
EC50 [10]: 20.1 µM (active)
EC50 [12]: 9.48 µM (active)
EC50 [23]: 7.32 µM (active)
IC50 [24]: > 80 µM (inactive)
EC50 [25]: 5.67 µM (active)
AC50 [26]: > 100 µM (inactive)
